Assay results from patent US20210322352A1, “COMPOSITION FOR IMPROVING ENDURANCE AND METHOD OF IMPROVING ENDURANCE USING THE SAME” (PHARMA FOODS INTERNATIONAL CO., LTD., priority 2020, published 2021).

Assays:
[1] = system: glycogen in a skeletal muscle (gastrocnemius muscle); test: Measurement of the amount of glycogen in a skeletal muscle; format: in vivo, mouse; conditions: 0.5% GABA diet
Experimental: (§1) Specifically, 10 week-old male ICR mice are classified into the group in which normal food is freely ingested and training is not carried out (control group), the group in which a diet of normal food added with 0.5% of GABA (1.8 g for human) is freely ingested and training is not carried out (GABA group), the group in which normal food is freely ingested and training is carried out (training group) and the group in which a diet of normal food added with 0.5% of GABA (1.8 g for human) is freely ingested and training is carried out (GABA training group) (9 mice in each group). During the test period, the above classified mice freely ingested about 2.7 to about 5.0 g/day of normal food or GABA-comprising food per one individual. Regarding the training group and the GABA training group, running was forced for 60 minutes on a schedule of 3 times a week (interval of 1 day or 2 days). This training was continued until 3 days after termination of the below-mentioned third running test. In the training, a treadmill for small animals (Meiquest Ltd.) was used with the gradient of 0 degree to force running at 25 m/minute running speed. Since a mouse will run at the speed of about 6 to 24 m/minute without a load, the running speed of 25 m/minute is a little faster than normal, i.e., low to moderate intensity.

mitochondrial DNA = test: Measurement of the amount of mitochondrial DNA in a skeletal muscle (real-time PCR); format: in vivo, mouse; conditions: GABA training group vs control group, GABA group and training group
Experimental: (§2) Specifically, 10 week-old male ICR mice are classified into the group in which normal food is freely ingested and training is not carried out (control group), the group in which a diet of normal food added with 0.5% of GABA (1.8 g for human) is freely ingested and training is not carried out (GABA group), the group in which normal food is freely ingested and training is carried out (training group) and the group in which a diet of normal food added with 0.5% of GABA (1.8 g for human) is freely ingested and training is carried out (GABA training group) (9 mice in each group).
(§3) During the test period, the above classified mice freely ingested about 2.7 to about 5.0 g/day of normal food or GABA-comprising food per one individual. Regarding the training group and the GABA training group, running was forced for 60 minutes on a schedule of 3 times a week (interval of 1 day or 2 days). […]
20 to 50 mg of tissue sample was taken out to a 2 mL plastic tube to extract DNA in accordance with the genome DNA purification protocol described in NucleoSpin® DNARapidLyse (TAKARA BIO INC.). The amount of relative expression of the amount of mitochondria with respect to mouse nuclear DNA was quantified with the real-time PCR method using Thermal Cycler Dice® Real TimeSystem II (TAKARA BIO INC.) and set as mitochondrial DNA amount.

phosphorylated AKT/AKT = test: Phosphorylated AKT/AKT ratio in a skeletal muscle (western blotting); format: in vivo, mouse; conditions: gastrocnemius muscle
Experimental: as §1

skeletal muscle = conditions: GABA in addition to whey protein vs whey protein alone; in training; J Clin Med Res. 2019; 11(6):428-434; cited from earlier work
insulin in plasma = test: Measurement of the amount of insulin in plasma; format: in vivo, mouse; conditions: 0.5% GABA diet
Experimental: as §2
During the test period, the above classified mice freely ingested about 2.7 to about 5.0 g/day of normal food or GABA-comprising food per one individual. Regarding the training group and the GABA training group, running was forced for 60 minutes on a schedule of 3 times a week (interval of 1 day or 2 days). This training was continued until 3 days after termination of the below-mentioned third running test. In the training, a treadmill for small animals (Meiquest Ltd.) was used with the gradient of 0 degree to force running at 25 m/minute running speed. Since a mouse will run at the speed of about 6 to 24 m/minute without a load, the running speed of 25 m/minute is a little faster than normal, i.e., low to moderate intensity.
2 days after termination of the final training, blood of a mouse in a group is collected to measure the amount of insulin in plasma. The measurement of the amount of insulin in plasma was carried out as described below using Lbis (registered trademark) Insulin-Mouse T (FUJIFILM Wako Shibayagi Corporation).
96 well plate for turning an antibody into a solid phase was prepared and washed 4 times with a cleaning liquid. 100 μL of biotin binding anti-insulin antibody was added thereto and stirred. […] 100 μL of 1M sulphuric acid solution was respectively added to stop the reaction, measure absorbance (OD 450 nm) and calculate the amount of insulin in plasma.

myosin 2a protein = test: Relative expression of myosin 2a in a skeletal muscle (soleus muscle), western blotting; format: in vivo, mouse
Experimental: as §2
as §3, with “days). This training was continued until 3 days after termination of the below-mentioned third running test.” for “days).”
Two days after termination of the final training, a skeletal muscle (soleus muscle) tissue of mouse was grinded with a biomasher on ice. […] The protein concentration of the protein extraction liquid was measured with a protein assay BCA kit and dilution was carried out with a RIPA buffer so that the protein concentration of the protein extraction liquid would be 4 mg/ml. […]

AMPK protein = test: Relative expression of AMPK protein in a skeletal muscle (western blotting); format: in vivo, mouse; conditions: gastrocnemius muscle
Experimental: as §1, with “[…] The amount of protein was quantified in accordance with the method of the TaKaRa BCA Protein Assay Kit (TAKARA BIO INC.) using bovine serum albumin as” for “Since”, “standard protein. […]” for “mouse will run at the speed of about 6 to 24 m/minute without a load, the running speed of 25 m/minute is a little faster than normal, i.e., low to moderate intensity.”

male ICR mice = test: Measurement of limit running time using a treadmill; format: in vivo, mouse; conditions: GABA training group vs training group, diet with 0.5% GABA
Experimental: as §1

PGC-1α protein = test: Relative expression of PGC-1α protein in a skeletal muscle (western blotting); format: in vivo, mouse; conditions: gastrocnemius muscle
Experimental: as §1, with “[…] The amount of protein was quantified in accordance with the method of the TaKaRa BCA Protein Assay Kit (TAKARA BIO INC.) using bovine serum albumin as” for “Since”, “standard protein. […]” for “mouse will run at the speed of about 6 to 24 m/minute without a load, the running speed of 25 m/minute is a little faster than normal, i.e., low to moderate intensity.”

## NCCCC(=O)O [GABA, γ-aminobutyric acid]
[1]; GABA group vs control group, no training, P=0.09
  amount of glycogen in the gastrocnemius muscle: tendency of increase
[1]; GABA training group vs training group, P=0.04
  amount of glycogen in the gastrocnemius muscle: significantly increased
Mitochondrial DNA
  mitochondrial DNA amount in a skeletal muscle: tendency of increase
Phosphorylated AKT/AKT; GABA group vs control group
  phosphorylated AKT/total AKT ratio in a skeletal muscle: tendency to decrease
Phosphorylated AKT/AKT; GABA training group vs training group, P=0.0001
  phosphorylated AKT/total AKT ratio in a skeletal muscle: significantly decreased
Skeletal muscle
  amount of fat removed muscle: increases
  muscle hypertrophy: stimulates more muscle hypertrophy
Insulin in plasma; GABA group vs control group, no training
  amount of insulin in plasma: decreased
Insulin in plasma; GABA training group vs control group
  amount of insulin in plasma: decreased
Insulin in plasma; GABA training group vs training group, P=0.07
  amount of insulin in plasma: decreased
Myosin 2a protein; GABA group vs control group and training group
  amount of expression of myosin 2a protein in a skeletal muscle (soleus muscle): tendency to increase
Myosin 2a protein; GABA training group vs the other 3 groups
  amount of expression of myosin 2a protein in a skeletal muscle (soleus muscle): significantly increased
AMPK protein; GABA training group vs control group, P=0.0008
  amount of expression of AMPK protein: increased
AMPK protein; GABA training group vs training group
  amount of expression of AMPK protein: increased more than the training group
Male ICR mice; fourth week, P=0.14
  amount of increase of running time due to a training (running time to exhaustion): tendency to be enlarged
Male ICR mice; second week, P=0.04
  amount of increase of running time due to a training (running time to exhaustion): significantly enlarged
PGC-1α protein; GABA training group vs training group, P=0.01
  amount of expression of PGC-1α protein in a skeletal muscle: significantly increased
PGC-1α protein; vs control group (group not given, presumably GABA group)
  amount of expression of PGC-1α protein in a skeletal muscle: tendency of increase
